The values that follow come from patent US20090156662A1, “Fat Absorption Inhibitor” (ITO EN, LTD., priority 2006, published 2009).

A short description of experiment [1]: Micellar cholesterol release: cholesterol remaining in bile acid micelles after incubation with test substance, filtration and GC. The following applies: for micellar cholesterol concentration: Embodiment 4, same method as Embodiment 1, FIG. 5. Here is the method: Prepared were micelles composed of 0.5 mM of cholesterol, 6.6 mM of sodium taurocholate, 0.6 mM of phosphatidyl choline of egg yolk origin, 132 mM of sodium chloride (NaCl) and 15 mM of sodium phosphate (NaH2PO4.2H2O). The micelles were incubated for 24 hours at 37° C. for stabilizing the micelles. Then 0.1 mL solution of each theaflavin (manufactured by Nagara Science Co.) was added to each of 3 mL portions of the micelles in such a manner that their concentrations were to be respectively 0 μg, 200 μg and 800 μg to 1 mL of the micelles, which were then incubated at 37° C. for 1 hour. After that, each of solutions was filtered through a 220 nm filter (manufactured by Whatman Co.) to obtain a clear micelle solution. Cholesterol was extracted from each micelle solution obtained, and the concentration of cholesterol remained in the micelles was measured using a gas chromatograph (manufactured by Shimadzu Corp.) using 5α-cholestane as an internal standard.
(§1) Prepared were micelles composed of 0.5 mM of cholesterol (manufactured by Sigma Co.), 6.6 mM of sodium taurocholate (manufactured by Nacalai Tesque Inc.), 0.6 mM of phosphatidyl choline from egg yolk (manufactured by Sigma Co.), 132 mM of sodium chloride (NaCl, manufactured by Nacalai Tesque Inc.) and 15 mM of sodium phosphate (NaH2PO4.2H2O, manufactured by Nacalai Tesque Inc.). The micelles were incubated at 37° C. for 24 hours for stabilization. Then 0.1 mL solution of the theaflavins formulation (manufactured by Funakoshi Corp.) was added to each of 3 mL portions of the micelles in such a manner that their concentrations were respectively 0 μg, 200 μg and 800 μg to 1 mL micelles, and the solutions were incubated at 37° C. for 1 hour (n=3). Each solution was filtered through a 220 nm filter to obtain a clear solution. Cholesterol was extracted from each micelle solution, and cholesterol remained in the micelle was measured with a gas chromatograph (manufactured by Shimadzu Corp.) using 5α-cholestane as an internal standard.
Next, micelles for test were prepared (pH 6.8) at a composition of 0.5 mM of cholesterol, 6.6 mM of sodium taurocholate, 0.6 mM of egg yolk phosphatidyl choline, 132 mM of sodium chloride (NaCl) and sodium phosphate (NaH2PO4.2H2O), and the micelles were incubated at 37° C. for 24 hours for stabilization. […]

A short description of experiment [2]: Concentration of bile acid in the micelle solution by the enzymatic method (Eaton et al.). The following applies: Embodiment 3; FIG. 4. Here is the method:
as §1
Moreover, the concentration of bile acid was measured by the enzymatic method in accordance with the process of Eaton et al (Eaton, D. L. et al., Proc. Soc. Exp. Biol. Med. 1976, January; 151(1): 198-202).

A short description of experiment [3]: Micellar cholesterol release: cholesterol remaining in bile acid micelles after incubation with test substance, filtration and GC. The following applies: for concentration of cholesterol in the micelles / concentration of micellar cholesterol relative to the case using theaflavin or theaflavin digallate: Embodiment 1; for concentration of cholesterol in the micelles: amount of addition raised up to 0.5 mM, incubated 37° C. 1 hour, FIG. 1; for concentration of micellar cholesterol relative to the case using theaflavin or theaflavin digallate: at an amount of 0.5 mM addition.

Each structure is given as a SMILES string.

With `O=C(O[C@@H]1Cc2c(O)cc(O)cc2O[C@@H]1c1ccc(O)c(O)c1)c1cc(O)c(O)c(O)c1` [epicatechin gallate], the micellar cholesterol concentration result in experiment [1] is “little effect”.
Consider `O=C(O[C@@H]1Cc2c(O)cc(O)cc2O[C@@H]1c1cc(O)c(O)c(O)c1)c1cc(O)c(O)c(O)c1` [epigallocatechin gallate], for which, in experiment [1] (Embodiment 3, 0, 200 and 800 μg to 1 mL micelles, 37° C. 1 hour, n=3, FIG. 3), the “concentration of cholesterol in the micelles” value (“concentration of cholesterol” for short) is given as “decreased”. For the same compound, in experiment [1], the micellar cholesterol concentration entry is “decreased”. In addition, the “effect on the concentration of bile acid” value in experiment [2] was “did not show any effect”.
As for `O=C(O[C@@H]1Cc2c(O)cc(O)cc2O[C@@H]1c1cc(O)c(=O)c2c(O)c(O)cc([C@H]3Oc4cc(O)cc(O)c4C[C@H]3OC(=O)c3cc(O)c(O)c(O)c3)c2c1)c1cc(O)c(O)c(O)c1` [theaflavin-3,3′-digallate], the micellar cholesterol concentration result in experiment [1] is listed as “little effect”. Moreover, the “concentration of cholesterol” value in experiment [3] is “did not change”. The “micelle formation inhibitory effect” value in experiment [3] (Embodiment 2, amount of addition increased up to 2 mmol/L, FIG. 2) was “excellent micelle formation inhibitory effect”. Moreover, the cholesterol decreasing effect entry in experiment [3] (Embodiment 2, amount of addition up to 1 mmol/L, FIG. 2) is recorded as “relatively gentle”.
Regarding `O=C(O[C@@H]1Cc2c(O)cc(O)cc2O[C@@H]1c1cc(=O)c(O)c2c(O)c(O)cc([C@H]3Oc4cc(O)cc(O)c4C[C@H]3O)c2c1)c1cc(O)c(O)c(O)c1` [theaflavin-3-monogallate], in experiment [3], the “concentration of cholesterol” value is recorded as “decreased in a manner dependent on the amount of addition” and the “concentration of micellar cholesterol relative to the case using theaflavin or theaflavin digallate” value is “decreased about twice”.
For the compound `O=C(O[C@@H]1Cc2c(O)cc(O)cc2O[C@@H]1c1cc(O)c(O)c2c(=O)c(O)cc([C@H]3Oc4cc(O)cc(O)c4C[C@H]3O)cc12)c1cc(O)c(O)c(O)c1` [theaflavin-3′-monogallate], in experiment [3], the “concentration of cholesterol” value is “decreased in a manner dependent on the amount of addition” and the “concentration of micellar cholesterol relative to the case using theaflavin or theaflavin digallate” value is recorded as “decreased about twice”.
Take `O=c1c(O)cc([C@H]2Oc3cc(O)cc(O)c3C[C@H]2O)cc2c([C@H]3Oc4cc(O)cc(O)c4C[C@H]3O)cc(O)c(O)c12` [theaflavin]: the “concentration of cholesterol” value in experiment [3] is “did not change”.
